According to ChEMBL document CHEMBL5291721, “A preclinical secondary pharmacology resource illuminates target-adverse drug reaction associations of marketed drugs” (Nat Commun, 2023):

What was measured:
Estrogen receptor = biological target: T1, Estrogen receptor (Homo sapiens, UniProt P03372)
T1 sequence (P03372 whole entry): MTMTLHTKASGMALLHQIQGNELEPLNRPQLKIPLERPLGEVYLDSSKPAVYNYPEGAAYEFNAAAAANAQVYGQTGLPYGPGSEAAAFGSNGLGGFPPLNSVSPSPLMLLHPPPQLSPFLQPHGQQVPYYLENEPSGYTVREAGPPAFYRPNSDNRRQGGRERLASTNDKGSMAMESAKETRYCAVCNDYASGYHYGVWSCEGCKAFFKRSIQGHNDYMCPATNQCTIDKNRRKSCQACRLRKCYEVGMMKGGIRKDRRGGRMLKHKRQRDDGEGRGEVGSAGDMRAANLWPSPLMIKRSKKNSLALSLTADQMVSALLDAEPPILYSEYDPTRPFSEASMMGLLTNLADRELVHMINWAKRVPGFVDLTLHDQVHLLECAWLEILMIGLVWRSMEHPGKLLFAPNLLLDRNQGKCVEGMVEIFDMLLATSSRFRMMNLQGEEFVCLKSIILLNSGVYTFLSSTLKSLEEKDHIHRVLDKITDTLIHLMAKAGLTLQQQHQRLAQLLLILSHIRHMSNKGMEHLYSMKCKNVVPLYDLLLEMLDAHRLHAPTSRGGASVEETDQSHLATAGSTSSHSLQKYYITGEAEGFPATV

Vasopressin V1a receptor = Vasopressin V1a receptor (Homo sapiens, UniProt P37288)
Endothelin-1 receptor = biological target: T2, Endothelin-1 receptor (Homo sapiens, UniProt P25101)
T2 sequence (P25101 whole entry): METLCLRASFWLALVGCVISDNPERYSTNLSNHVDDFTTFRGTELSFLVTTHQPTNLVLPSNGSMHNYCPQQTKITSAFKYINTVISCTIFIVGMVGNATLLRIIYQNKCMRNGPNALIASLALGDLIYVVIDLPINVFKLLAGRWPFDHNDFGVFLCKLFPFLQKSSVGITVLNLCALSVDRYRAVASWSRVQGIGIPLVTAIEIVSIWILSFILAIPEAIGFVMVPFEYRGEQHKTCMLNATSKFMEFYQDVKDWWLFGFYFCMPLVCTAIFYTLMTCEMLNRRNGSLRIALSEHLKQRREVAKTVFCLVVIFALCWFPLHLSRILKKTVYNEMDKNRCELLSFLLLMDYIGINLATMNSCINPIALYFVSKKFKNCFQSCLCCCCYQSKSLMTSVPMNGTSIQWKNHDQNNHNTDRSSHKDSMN

[1] = biological target: T3, Muscarinic acetylcholine receptor M1 (Homo sapiens, UniProt P11229); format: functional
T3 sequence (P11229 whole entry): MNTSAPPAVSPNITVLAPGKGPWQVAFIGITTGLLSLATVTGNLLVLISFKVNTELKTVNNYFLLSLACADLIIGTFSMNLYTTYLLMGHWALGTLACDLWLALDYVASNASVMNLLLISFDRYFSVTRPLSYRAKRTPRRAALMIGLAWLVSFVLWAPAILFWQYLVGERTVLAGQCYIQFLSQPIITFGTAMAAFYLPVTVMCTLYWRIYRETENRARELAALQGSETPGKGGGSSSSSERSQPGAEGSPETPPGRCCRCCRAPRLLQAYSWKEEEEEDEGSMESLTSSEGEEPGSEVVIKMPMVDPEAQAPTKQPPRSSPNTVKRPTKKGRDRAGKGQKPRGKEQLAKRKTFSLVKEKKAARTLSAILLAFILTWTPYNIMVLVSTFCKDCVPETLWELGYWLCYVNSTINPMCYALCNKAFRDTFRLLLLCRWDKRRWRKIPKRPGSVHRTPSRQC

[2] = biological target: Voltage-dependent L-type calcium channel subunit alpha-1C (Rattus norvegicus, UniProt P22002); format: functional
[3] = biological target: T4, 5-hydroxytryptamine receptor 1A (Homo sapiens, UniProt P08908); format: functional, cell-based
T4 sequence (P08908 whole entry): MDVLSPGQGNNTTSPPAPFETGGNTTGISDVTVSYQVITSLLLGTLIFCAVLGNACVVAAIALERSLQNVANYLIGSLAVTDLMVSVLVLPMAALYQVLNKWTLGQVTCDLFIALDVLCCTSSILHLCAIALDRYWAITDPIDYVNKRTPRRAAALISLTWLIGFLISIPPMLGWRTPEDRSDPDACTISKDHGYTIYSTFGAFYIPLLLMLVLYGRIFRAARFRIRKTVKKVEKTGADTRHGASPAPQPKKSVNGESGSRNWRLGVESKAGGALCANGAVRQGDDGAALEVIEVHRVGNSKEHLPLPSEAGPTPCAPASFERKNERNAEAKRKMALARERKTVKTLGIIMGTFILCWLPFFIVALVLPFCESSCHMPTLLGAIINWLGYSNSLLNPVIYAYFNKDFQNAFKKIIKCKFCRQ

[4] = biological target: T5, Muscarinic acetylcholine receptor M2 (Homo sapiens, UniProt P08172); format: functional, cell-based
T5 sequence (P08172 whole entry): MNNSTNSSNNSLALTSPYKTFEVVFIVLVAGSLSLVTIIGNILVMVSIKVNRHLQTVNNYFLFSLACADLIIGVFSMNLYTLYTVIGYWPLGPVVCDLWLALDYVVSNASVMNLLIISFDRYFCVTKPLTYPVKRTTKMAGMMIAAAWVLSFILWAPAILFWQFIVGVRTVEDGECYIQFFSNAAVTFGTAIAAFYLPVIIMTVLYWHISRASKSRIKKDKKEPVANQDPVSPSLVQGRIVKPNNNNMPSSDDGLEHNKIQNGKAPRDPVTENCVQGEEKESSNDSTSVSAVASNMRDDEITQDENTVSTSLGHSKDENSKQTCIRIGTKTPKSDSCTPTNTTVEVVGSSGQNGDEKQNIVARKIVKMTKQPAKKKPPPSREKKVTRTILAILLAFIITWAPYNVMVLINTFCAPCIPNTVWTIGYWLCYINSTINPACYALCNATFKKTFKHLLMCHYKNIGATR

Cannabinoid receptor 1 = Cannabinoid receptor 1 (Homo sapiens, UniProt P21554); format: functional, cell-based
Also: assay procedure not described here.

Sequence of Cannabinoid receptor 1 (P21554 whole entry): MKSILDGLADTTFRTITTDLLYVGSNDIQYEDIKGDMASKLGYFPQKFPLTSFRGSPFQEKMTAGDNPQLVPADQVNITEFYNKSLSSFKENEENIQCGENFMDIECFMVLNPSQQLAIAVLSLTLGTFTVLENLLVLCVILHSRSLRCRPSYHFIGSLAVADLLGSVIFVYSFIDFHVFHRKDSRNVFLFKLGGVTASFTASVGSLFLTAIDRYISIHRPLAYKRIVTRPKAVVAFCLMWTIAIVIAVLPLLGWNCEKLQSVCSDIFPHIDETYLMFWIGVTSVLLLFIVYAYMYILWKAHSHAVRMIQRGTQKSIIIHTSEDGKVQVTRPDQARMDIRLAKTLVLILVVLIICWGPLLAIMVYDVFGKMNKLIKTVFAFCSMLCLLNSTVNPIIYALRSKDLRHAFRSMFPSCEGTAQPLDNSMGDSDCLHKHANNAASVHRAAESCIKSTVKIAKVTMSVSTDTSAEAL
Sequence of Vasopressin V1a receptor (P37288 whole entry): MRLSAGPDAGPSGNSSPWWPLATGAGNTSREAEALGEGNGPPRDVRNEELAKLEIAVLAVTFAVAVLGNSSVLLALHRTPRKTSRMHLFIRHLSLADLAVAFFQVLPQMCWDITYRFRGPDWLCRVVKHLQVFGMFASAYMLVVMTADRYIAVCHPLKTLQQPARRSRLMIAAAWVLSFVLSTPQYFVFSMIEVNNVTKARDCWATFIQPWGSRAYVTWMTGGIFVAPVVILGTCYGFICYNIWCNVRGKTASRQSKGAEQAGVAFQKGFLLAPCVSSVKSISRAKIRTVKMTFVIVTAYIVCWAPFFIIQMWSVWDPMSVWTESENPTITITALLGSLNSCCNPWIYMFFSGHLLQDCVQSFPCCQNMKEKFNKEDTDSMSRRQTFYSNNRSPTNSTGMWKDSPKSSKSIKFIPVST
Sequence of Voltage-dependent L-type calcium channel subunit alpha-1C (P22002 whole entry): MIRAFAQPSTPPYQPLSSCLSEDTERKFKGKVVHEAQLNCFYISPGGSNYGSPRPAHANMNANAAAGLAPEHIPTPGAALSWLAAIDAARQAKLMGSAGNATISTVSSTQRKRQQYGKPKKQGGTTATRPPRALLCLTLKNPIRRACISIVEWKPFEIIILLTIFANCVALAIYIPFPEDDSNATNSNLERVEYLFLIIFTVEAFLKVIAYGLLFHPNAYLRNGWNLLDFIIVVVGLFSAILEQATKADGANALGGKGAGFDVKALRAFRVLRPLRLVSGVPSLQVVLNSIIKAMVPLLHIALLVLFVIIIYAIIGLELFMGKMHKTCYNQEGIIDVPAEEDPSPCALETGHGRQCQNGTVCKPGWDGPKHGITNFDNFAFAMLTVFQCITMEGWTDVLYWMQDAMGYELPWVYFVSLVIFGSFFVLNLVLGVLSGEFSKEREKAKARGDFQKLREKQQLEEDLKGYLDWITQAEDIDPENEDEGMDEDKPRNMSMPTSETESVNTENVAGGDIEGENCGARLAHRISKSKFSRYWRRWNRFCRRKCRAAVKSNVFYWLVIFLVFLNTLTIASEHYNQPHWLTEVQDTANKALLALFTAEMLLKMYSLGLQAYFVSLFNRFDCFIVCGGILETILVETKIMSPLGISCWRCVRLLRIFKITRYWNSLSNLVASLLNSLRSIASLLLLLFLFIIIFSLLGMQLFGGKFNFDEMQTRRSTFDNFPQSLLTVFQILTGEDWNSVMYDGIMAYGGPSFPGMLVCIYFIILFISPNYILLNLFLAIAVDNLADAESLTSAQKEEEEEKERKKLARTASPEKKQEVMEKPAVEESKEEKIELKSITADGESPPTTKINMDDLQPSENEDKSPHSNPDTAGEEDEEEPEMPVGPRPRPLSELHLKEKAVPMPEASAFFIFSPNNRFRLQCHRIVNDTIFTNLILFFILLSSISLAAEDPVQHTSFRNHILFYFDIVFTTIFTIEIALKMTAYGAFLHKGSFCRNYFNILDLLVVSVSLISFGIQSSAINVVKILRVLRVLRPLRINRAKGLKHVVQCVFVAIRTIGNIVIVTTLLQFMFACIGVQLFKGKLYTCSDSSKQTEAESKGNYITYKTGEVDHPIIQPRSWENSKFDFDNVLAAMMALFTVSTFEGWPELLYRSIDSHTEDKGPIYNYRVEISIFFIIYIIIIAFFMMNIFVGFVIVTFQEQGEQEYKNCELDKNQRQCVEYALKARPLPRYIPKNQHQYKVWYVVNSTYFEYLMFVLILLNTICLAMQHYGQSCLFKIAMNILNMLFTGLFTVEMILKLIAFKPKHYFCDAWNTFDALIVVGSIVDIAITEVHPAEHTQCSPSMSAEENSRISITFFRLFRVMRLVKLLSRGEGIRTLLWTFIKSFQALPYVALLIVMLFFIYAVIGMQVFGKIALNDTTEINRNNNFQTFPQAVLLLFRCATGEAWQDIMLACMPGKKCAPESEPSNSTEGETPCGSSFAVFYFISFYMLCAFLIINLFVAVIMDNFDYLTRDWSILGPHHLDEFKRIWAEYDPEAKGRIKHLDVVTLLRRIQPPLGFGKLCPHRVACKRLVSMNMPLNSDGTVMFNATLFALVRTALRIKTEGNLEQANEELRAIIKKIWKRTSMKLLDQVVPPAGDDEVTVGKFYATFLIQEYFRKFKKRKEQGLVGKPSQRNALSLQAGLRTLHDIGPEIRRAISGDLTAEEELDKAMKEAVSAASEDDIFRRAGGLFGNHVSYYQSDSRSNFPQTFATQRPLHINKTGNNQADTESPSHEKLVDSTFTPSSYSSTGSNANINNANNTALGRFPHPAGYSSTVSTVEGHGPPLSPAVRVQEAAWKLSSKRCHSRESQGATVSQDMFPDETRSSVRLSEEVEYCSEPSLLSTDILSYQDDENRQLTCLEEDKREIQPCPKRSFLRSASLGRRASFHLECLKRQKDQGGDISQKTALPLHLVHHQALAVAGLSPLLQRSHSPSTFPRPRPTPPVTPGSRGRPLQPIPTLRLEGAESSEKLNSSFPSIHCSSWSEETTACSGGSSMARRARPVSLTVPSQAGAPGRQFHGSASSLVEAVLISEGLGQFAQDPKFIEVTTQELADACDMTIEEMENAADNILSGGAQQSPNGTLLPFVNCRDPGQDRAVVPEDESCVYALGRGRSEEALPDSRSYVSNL

| Structure (SMILES) | AC50 (Estrogen receptor) [µM] | AC50 (Vasopressin V1a receptor) [µM] | AC50 (Endothelin-1 receptor) [µM] | AC50 [1] [µM] | AC50 [2] [µM] | AC50 [3] [µM] | AC50 [4] [µM] | AC50 (Cannabinoid receptor 1) [µM] |
| --- | --- | --- | --- | --- | --- | --- | --- | --- |
| C[C@]1(COc2ccc(N3CCC(Oc4ccc(OC(F)(F)F)cc4)CC3)cc2)Cn2cc([N+](=O)[O-])nc2O1 | > 30 | > 10 | > 30 | > 10 | > 10 | – | – | – |
| C[C@]12CC[C@H](O)CC1=CC[C@@H]1[C@@H]2CC[C@]2(C)C(c3cccnc3)=CC[C@@H]12 [ABIRATERONE] | > 30 | > 30 | – | > 10 | > 10 | > 10 | > 10 | – |
| CC(=O)OCC[N+](C)(C)C [ACETYLCHOLINE] | – | > 30 | > 30 | – | > 10 | – | – | > 30 |
| O=C(Nc1nc(-c2cc(Cl)cs2)c(N2CCN(C3CCCCC3)CC2)s1)c1cnc(N2CCC(C(=O)O)CC2)c(Cl)c1 [AVATROMBOPAG] | – | > 10 | > 10 | > 10 | > 10 | – | – | – |
| CN(C)C(=O)Oc1cc(OC(=O)N(C)C)cc(C(O)CNC(C)(C)C)c1 (configuration not stated) [BAMBUTEROL] | > 30 | > 30 | > 30 | – | – | – | – | – |
| C[C@H]1C[C@H]2[C@@H]3CCC4=CC(=O)C=C[C@]4(C)[C@@]3(Cl)[C@@H](O)C[C@]2(C)[C@@]1(O)C(=O)CO [BECLOMETHASONE] | > 30 | > 10 | > 30 | – | > 10 | – | – | – |
| CO[C@@]1(NC(=O)CSCC#N)C(=O)N2C(C(=O)O)=C(CSc3nnnn3C)CS[C@@H]21 [CEFMETAZOLE] | – | – | – | – | – | > 30 | > 30 | > 30 |
| CO/N=C(\C(=O)N[C@@H]1C(=O)N2C(C(=O)[O-])=C(C[n+]3cccc4c3CCC4)CS[C@H]12)c1csc(N)n1 [CEFPIROME] | – | – | – | > 30 | – | – | > 30 | > 30 |
| NS(=O)(=O)c1cc(C2(O)NC(=O)c3ccccc32)ccc1Cl (configuration not stated) [CHLORTHALIDONE] | – | – | – | – | > 10 | > 10 | > 10 | – |
| CC[C@H]1OC(=O)[C@H](C)[C@@H](O[C@H]2C[C@@](C)(OC)[C@@H](O)[C@H](C)O2)[C@H](C)[C@@H](O[C@@H]2O[C@H](C)C[C@H](N(C)C)[C@H]2O)[C@](C)(OC)C[C@@H](C)C(=O)[C@H](C)[C@@H](O)[C@]1(C)O [CLARITHROMYCIN] | – | > 30 | > 30 | – | – | – | > 30 | > 30 |
| Oc1c(I)cc(Cl)c2cccnc12 [CLIOQUINOL] | – | – | – | > 30 | – | > 30 | – | > 30 |
| COc1ccc2c(c1)[C@]13CCCC[C@@H]1[C@H](C2)N(C)CC3 [DEXTROMETHORPHAN] | > 30 | > 10 | > 30 | – | > 10 | > 10 | > 10 | – |
| O=c1oc2ccccc2c(O)c1Cc1c(O)c2ccccc2oc1=O [DICUMAROL] | – | – | – | – | > 10 | > 10 | > 10 | – |
| CCn1cc(C(=O)O)c(=O)c2cc(F)c(N3CCNCC3)nc21 [ENOXACIN] | > 30 | > 10 | 11.3 | – | > 10 | > 10 | > 10 | – |
| O=C(O)CSCC(=O)NC1CCSC1=O (configuration not stated) [ERDOSTEINE] | – | > 30 | > 30 | > 30 | > 30 | – | > 30 | > 30 |
| COc1cccc(N(C)C(=S)Oc2ccc3c(c2)CCCC3)n1 [LIRANAFTATE] | > 30 | > 30 | > 30 | > 30 | > 30 | – | > 30 | > 30 |
| C#C[C@]1(O)CC[C@H]2[C@@H]3CCc4cc(OC)ccc4[C@H]3CC[C@@]21C [MESTRANOL] | 0.136 | – | – | – | > 10 | > 10 | > 10 | – |
| N=C(N)c1ccc2cc(OC(=O)c3ccc(N=C(N)N)cc3)ccc2c1 [NAFAMOSTAT] | – | > 30 | > 30 | 8.7 | > 30 | – | 12 | > 30 |
| CNC(=O)Oc1ccc2c(c1)[C@]1(C)CCN(C)[C@@H]1N2C [PHYSOSTIGMINE] | > 30 | > 30 | > 30 | – | > 30 | > 30 | > 30 | > 30 |
| O=C(O)c1cc(O)c2c3nc4ccccc4oc-3cc(=O)c2n1 [PIRENOXINE] | – | > 30 | > 30 | 6.7 | 0.72 | > 30 | > 30 | > 30 |
| CNCCCC1c2ccccc2C=Cc2ccccc21 [PROTRIPTYLINE] | > 10 | > 10 | – | – | > 10 | > 10 | 1.8 | – |
| COCCCOc1ccnc(C[S+]([O-])c2nc3ccccc3[nH]2)c1C (configuration not stated) [RABEPRAZOLE] | – | > 10 | > 30 | – | > 10 | > 10 | > 10 | – |
| CC(C)=CCOc1ccc(/C=C/C(=O)c2ccc(OCC=C(C)C)cc2OCC(=O)O)cc1 [SOFALCONE] | > 30 | > 30 | > 30 | > 30 | > 30 | – | > 30 | > 30 |
| O=C(CCCN1CCC2(CC1)C(=O)NCN2c1ccccc1)c1ccc(F)cc1 [SPIPERONE] | – | > 30 | > 30 | > 30 | – | – | – | > 30 |
| CCSc1ccc2c(c1)N(CCCN1CCN(C)CC1)c1ccccc1S2 [THIETHYLPERAZINE] | – | – | – | 16 | – | – | > 10 | – |
| CN(C)c1cc(NC(=O)CNC(C)(C)C)c(O)c2c1C[C@H]1C[C@H]3[C@H](N(C)C)C(O)=C(C(N)=O)C(=O)[C@@]3(O)C(O)=C1C2=O [TIGECYCLINE] | > 30 | > 30 | – | 27 | > 30 | – | > 30 | – |
| OCCN1CCN(CC/C=C2/c3ccccc3Sc3ccc(Cl)cc32)CC1 [ZUCLOPENTHIXOL] | – | > 10 | – | > 10 | > 10 | 6.4 | > 10 | – |
